Patent publication US20070004636A1, “Method of degrading transcriptional factors of saccharometabolism-associated gene, method for inhibiting the degradation, and agent for inhibiting degradation and degradation inhibitor” (priority 2002, published 2007)

Experiments:
Format in all cases: cell-based
[1] = tested on: human HNF-4α; test: intracellular HNF-4α degradation test by adding calcium ionophore, HEK293T cells; conditions: 10 μg/mL, 3 hours, nuclear and cytoplasmic fraction
Procedure: After culturing a total number of 0.7×10^6 HEK293T cells for 22 hours at 37° C. under the presence of 5% CO2 (Petri dish with 60 mm diameter), 2 μg of HNF-4α expression plasmid (see Example 2) was transfected thereto using the FuGENE 6 Transfection Reagent. After two days of culturing, the culture medium was replaced with a medium that contained 10 μg/mL of ionophore A23187 (4-bromo-calcium ionophore A23187, Sigma Chemical Co.), and the culturing was continued for 3 hours. For a negative control group, the culture medium was replaced with a medium to which dimethylsulfoxide (DMSO) was added instead of the ionophore. After culturing for the pre-determined time, the cells were washed with cold PBS (−), suspended in 300 μl of hypotonic cell lysis buffer (10 mM HEPES, pH 7.5/10 mM MgCl2/42 mM KCl/1 mM PMSF), and left to stand on ice for 20 mins. The cells were disrupted with a homogenizer, and then centrifuged at 4° C. for 10 minutes at 600 g, to collect the resulting supernatant as a cytoplasmic fraction and the precipitation as a nuclear fraction. The nuclear fraction was further suspended in solution comprising 2×PBS/1% Nonidet P-40/0.1% SDS, and disrupted by ultrasonication. An equal volume of 2×SDS sample buffer was added thereto, heated for 5 minutes, and then subjected to 5-20% SDS-PAGE for separation. Detection of HNF-4α was conducted by the same method as in Example 4.

[2] = tested on: human HNF-1α; test: intracellular HNF-1α degradation test by adding calcium ionophore, HEK293T cells; conditions: 10 μg/mL, 4 hours
Procedure: After culturing a total number of 0.8×10^6 HEK293T cells for 5 hours at 37° C. under the presence of 5% CO2 (Petri dish with 60 mm diameter), 2 μg of an HNF-1α expression plasmid (see Example 7) was transfected thereto using the FuGENE 6 Transfection Reagent. After two days of culturing, the culture medium was replaced with a medium containing 10 μg/mL of ionophore A23187 (Sigma Chemical Co.) and 0.2% DMSO, and then the culturing was continued for 4 hours. For a negative control group, the culture medium was replaced with a medium containing 0.2% DMSO. After culturing for the pre-determined time, the cells were washed with cold PBS (−), suspended in 350 μl of hypotonic cell lysis buffer, and then left to stand on ice for 20 mins. The cells were disrupted with a homogenizer, and then centrifuged at 4° C. for 10 minutes at 600 g to collect the resulting supernatant as a cytoplasmic fraction and the precipitation as a nuclear fraction. The nuclear fraction was further suspended in solution comprising 2×PBS/1% Nonidet P-40/0.1% SDS, and disrupted by ultrasonication. The protein concentration of cell fractions was determined with Coomassie Plus Protein Assay Reagent Kit (Pierce Chemical Corp.). Each of the prepared samples was added to an equal volume of 2×SDS sample buffer, heated for 5 minutes, and then subjected to 5-20% SDS-PAGE for separation. […]

[3] = tested on: human IPF-1; test: intracellular IPF-1 degradation test by adding calcium ionophore, HEK293T cells; conditions: 10 μg/mL, 4 hours
Procedure: After culturing a total number of 0.5×10^6 HEK293T cells for 24 hours at 37° C. under the presence of 5% CO2 (Petri dish with 60 mm diameter), 2 μg of IPF-1 expression plasmid (see Example 10) was transfected thereto using the FuGENE 6 Transfection Reagent. After two days of culturing, the culture medium was replaced with a medium containing 10 μg/mL of ionophore A23187 (Sigma Chemical Co.), and the culturing was continued for further 4 hours. For a negative control group, the culture medium was replaced with a medium containing 0.2% DMSO. After culturing for the pre-determined time, the cells were washed with cold PBS (−), suspended in 350 μl of hypotonic cell lysis buffer, and then left to stand on ice for 20 mins. The cells were disrupted with a homogenizer, and then centrifuged at 4° C. for 10 minutes at 600 g to collect the supernatant as a cytoplasmic fraction and the precipitation as a nuclear fraction. The nuclear fraction was further suspended in solution comprising 2×PBS/1% Nonidet P40/0.1% SDS, and disrupted by ultrasonication. The nuclear fraction and cell fraction were added to an equal volume of 2×SDS sample buffer, heated for 5 minutes, and then subjected to 5-20% SDS-PAGE for separation. Detection of IPF-1 was conducted by the same method as in Example 10.

4-bromo-calcium ionophore A23187
observed: degradation of HNF-4α by adding ionophore [1] | degradation of HNF-1α by addition of ionophore [2] | degradation of IPF-1 by addition of ionophore [3]
